IC50 data for 1 molecule are collected here from patent US20240208901A1, “Deuterated 3,3'-Diselenodipropionic Acid (DSePA) and Its Use as an Anticancer or Radioprotective Agent” (Secretary, Department of Atomic Energy, priority 2022, published 2024).

Each structure is given as a SMILES string.

Type in all cases: cell-based, human
One test has as its system WI-26 VA4 cells. Nature of the test: MTT assay, toxicity in non-cancerous lung fibroblast WI-26 VA4 cells. Particulars: 48 h post treatment, read-out: IC50 for inhibiting the cell proliferation. The text has this: (§1) Therefore, D-DSePA was compared with un-deuterated DSePA for its anticancer activity in A549, H1975 and H3122 cell lines which are representative of NSCLC. […] The plot of percent (%) cytotoxicity (100-% viability) versus the concentration of DSePA/D-DSePA was used to estimate the half maximum concentration (IC50) of above compounds to inhibit the proliferation of cells. […] Similarly, the toxicity of DSePA/D-DSePA was studied in non-cancerous lung fibroblast cells, WI-38 and WI-26 VA4 in the concentration range of 0.1 to 1000 μM at 48 h post treatment by MTT assay (FIG. 9D and 9E). […] Employing these values, the therapeutic index (IC50 in normal lung cell/IC50 in lung cancer cell) of DSePA and D-DSePA in different pairs of normal versus cancerous cells (viz., A549/WI-38, A549/WI-26 VA4, H1975/WI-38, H1975/WI-26 VA4, H3122/WI-38 and H3122/WI-26 VA4) was calculated (Table-3). […]
(§2) MTT Assay—To evaluate the anti-proliferative effect of D-DScPA and DScPA, Cells (˜5×10^3) suspended in 100 μl of complete culture medium were seeded in each well of 96 well plates. […] The percentage (%) cytotoxicity was calculated from the decrease in absorbance at 570 nm of treated groups as compared to that of control group. […] The therapeutic index was calculated by normalizing the IC50 concentration of D-DSePA/DSePA in non-cancerous cells to that in cancerous cells.
For orientation: Tetrazolium dyes change colour on reduction, which living cells bring about.

The test system of test [1] is A549 cells. Nature of the test: Clonogenic assay in A549 cells. Particulars: seven days treatment, read-out: IC50 to inhibit growth (survival fraction). The protocol: (§3) Further, clonogenic assay is considered as the gold standard method for evaluating the anticancer activity of any compound and is also a good indicator of the in vivo efficacy of any anticancer compound. Therefore, the therapeutic index of DSePA and D-DSePA in A549/WI-38 cells was also validated by employing the clonogenic assay. For this, A549/WI-38 cells were treated with the varying concentrations (0.1-2 μM)/(1-500 μM) of DSePA/D-DSePA for seven days and the survival fraction was calculated by counting the number of surviving clones (FIG. 11A). The plot of survival fraction verses the concentration of DScPA/D-DSCPA was used to estimate the IC50 of above compounds to inhibit the growth of A549/WI-38 cells. […] This clearly confirmed that deuteration of DScPA reduced its toxicity in normal cells without compromising its efficacy in cancer cells. […]
(§4) Clonogenic assay—Clonogenic assay was performed according to the method reported previously. […] After 7 days, colonies were fixed with absolute methanol for 5 min, stained with 0.5% crystal violet for 5 min, washed with distilled water to remove excess stain and counted manually under a stereo microscope. […] The plating efficiency and the survival fraction under irradiated and drug treated conditions were calculated using following formulae: […]
(§5) The plating efficiency of A549 and WI38 cells was calculated by seeding ˜300 and ˜500 cells respectively. […]

For test [2], the system named is WI-38 cells. Nature of the test: Clonogenic assay in WI-38 cells. Particulars: seven days treatment, read-out: IC50 to inhibit growth (survival fraction). The protocol: as §3, §4, §5
The subject of the next test is H1975 cells. The test can be described thus: MTT assay, anti-proliferative effect in H1975 cells. Particulars: 48 h treatment, read-out: IC50 to inhibit cell proliferation. The protocol: (§6) Therefore, D-DSePA was compared with un-deuterated DSePA for its anticancer activity in A549, H1975 and H3122 cell lines which are representative of NSCLC. For this, above cells were treated with the varying concentrations (0.1-100 μM) of DSePA/D-DSePA for 48 h and the cell viability was determined by MTT assay (FIG. 9A-C). The plot of percent (%) cytotoxicity (100-% viability) versus the concentration of DSePA/D-DSePA was used to estimate the half maximum concentration (IC50) of above compounds to inhibit the proliferation of cells. […] Employing these values, the therapeutic index (IC50 in normal lung cell/IC50 in lung cancer cell) of DSePA and D-DSePA in different pairs of normal versus cancerous cells (viz., A549/WI-38, A549/WI-26 VA4, H1975/WI-38, H1975/WI-26 VA4, H3122/WI-38 and H3122/WI-26 VA4) was calculated (Table-3). […]
as §2

In test [3] the test system is WI-38 cells. Nature of the test: MTT assay, toxicity in non-cancerous lung fibroblast WI-38 cells. Particulars: WI38 cells, 48 h post treatment, read-out: IC50 for inhibiting the cell proliferation.
From the text: as §1, §2

For test [4], the system named is A549 cells. Nature of the test: MTT assay, anti-proliferative effect in A549 cells. Particulars: 48 h treatment, read-out: IC50 to inhibit cell proliferation. The protocol: as §6, §2
A further test deals with H3122 cells. The test can be described thus: MTT assay, anti-proliferative effect in H3122 cells. Particulars: 48 h treatment, read-out: IC50 to inhibit cell proliferation. The protocol: as §6, §2

On to `O=C(O)CC[Se][Se]CCC(=O)O` [D-DSePA, 3,3′-diselenodipropionic acid-D8], for which the IC50 in the test with WI-26 VA4 cells is 550 ± 10.2 µM; in the test on A549 cells [1], 0.9 ± 0.03 µM; in the test with WI-38 cells [2], 35.5 ± 0.02 µM; in the test on H1975 cells it was 4.6 ± 0.7 µM; with WI-38 cells [3], 1000 ± 6.3 µM; in the test with A549 cells [4], 15.2 ± 0.9 µM. In the test with H3122 cells, the IC50 stood at 46.5 ± 2.9 µM.
